The record followed here is BindingDB's records for doi:10.1016/j.bmcl.2011.09.019 (Itherx Pharmaceuticals, 2011).

A word on the IC50: it is the point on the concentration scale where inhibition reaches its midpoint. A high value points to weaker potency in that assay.

The assay can be described thus: Inhibition of human SRB1-mediated Hepatitis C virus genotype 2a entry into human 293T cells by immunoblotting.
`C[C@@H]1CN(CCCn2c3ccccc3c3ccccc32)C[C@H](C)N1` [9-(3-(3,5-dimethylpiperazin-1-yl)propyl)-9H-carbazole]: half-maximal inhibition (IC50) required 1200 nM.

The compound `COC(=O)c1ccc2c(c1)c1ccccc1n2CCCN1C[C@@H](C)N[C@@H](C)C1` returned an IC50 of 230 nM.

The compound `CC(C)OC(=O)c1ccc2c(c1)c1ccccc1n2CCCN1C[C@@H](C)N[C@@H](C)C1` returned an IC50 of 630 nM.

In the case of `CCOC(=O)c1ccc2c(c1)c1ccccc1n2CCCN1C[C@@H](C)N[C@@H](C)C1`, the IC50 stood at 600 nM.
